# Measurements from the supplement of paper PMC10307832.
# Key:
# Assay in all cases: relative viability (nuclei count vs DMSO), 5 days (fraction); higher = more cells survive
# JZL-184 + Trametinib = compound: C1CN(CCC1C(C2=CC3=C(C=C2)OCO3)(C4=CC5=C(C=C4)OCO5)O)C(=O)OC6=CC=C(C=C6)[N+](=O)[O-] [JZL-184] + CC(=O)Nc1cccc(-n2c(=O)n(C3CC3)c(=O)c3c(Nc4ccc(I)cc4F)n(C)c(=O)c(C)c32)c1 [Trametinib] (partner 0.02 µM)
# Outline: (§1)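 Lung cancer cell lines, seeded in 1536-well plates, were treated the following day by pin tool with a single drug or with five library-drug doses (not always all listed) in √10 steps on top of a fixed anchor-drug dose. Cells were fixed and nuclei stained in one step after 5 days, and nuclei were counted. Relative viability is the nuclei count for treated wells divided by that for vehicle wells, reported as medians of duplicate plates.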
# JZL-184 + Navitoclax = compound: C1CN(CCC1C(C2=CC3=C(C=C2)OCO3)(C4=CC5=C(C=C4)OCO5)O)C(=O)OC6=CC=C(C=C6)[N+](=O)[O-] [JZL-184] + CC1(C)CCC(c2ccc(Cl)cc2)=C(CN2CCN(c3ccc(C(=O)NS(=O)(=O)c4ccc(N[C@H](CCN5CCOCC5)CSc5ccccc5)c(S(=O)(=O)C(F)(F)F)c4)cc3)CC2)C1 [Navitoclax] (partner 0.5 µM)
# Outline: as §1
# JZL-184 + Luminespib = compound: C1CN(CCC1C(C2=CC3=C(C=C2)OCO3)(C4=CC5=C(C=C4)OCO5)O)C(=O)OC6=CC=C(C=C6)[N+](=O)[O-] [JZL-184] + CCNC(=O)c1noc(-c2cc(C(C)C)c(O)cc2O)c1-c1ccc(CN2CCOCC2)cc1 [Luminespib] (partner 0.01 µM)
# Outline: as §1
# JZL-184 + AZD7762 = compound: C1CN(CCC1C(C2=CC3=C(C=C2)OCO3)(C4=CC5=C(C=C4)OCO5)O)C(=O)OC6=CC=C(C=C6)[N+](=O)[O-] [JZL-184] + NC(=O)Nc1cc(-c2cccc(F)c2)sc1C(=O)N[C@H]1CCCNC1 [AZD7762] (partner 0.2 µM)
# Outline: as §1
# JZL-184 + Decitabine = compound: C1CN(CCC1C(C2=CC3=C(C=C2)OCO3)(C4=CC5=C(C=C4)OCO5)O)C(=O)OC6=CC=C(C=C6)[N+](=O)[O-] [JZL-184] + Nc1ncn([C@H]2C[C@H](O)[C@@H](CO)O2)c(=O)n1 [Decitabine] (partner 2 µM)
# Outline: as §1
Cell Line,relative viability (JZL-184 + Trametinib; first compound 0.04 µM),relative viability (JZL-184 + Trametinib; first compound 0.4 µM),relative viability (JZL-184 + Trametinib; first compound 1.265 µM),relative viability (JZL-184 + Trametinib; first compound 4 µM),relative viability (JZL-184 + Navitoclax; first compound 0.04 µM),relative viability (JZL-184 + Navitoclax; first compound 0.4 µM),relative viability (JZL-184 + Navitoclax; first compound 1.265 µM),relative viability (JZL-184 + Navitoclax; first compound 4 µM),relative viability (JZL-184 + Luminespib; first compound 0.04 µM),relative viability (JZL-184 + Luminespib; first compound 0.4 µM),relative viability (JZL-184 + Luminespib; first compound 1.265 µM),relative viability (JZL-184 + Luminespib; first compound 4 µM),relative viability (JZL-184 + AZD7762; first compound 0.04 µM),relative viability (JZL-184 + AZD7762; first compound 0.4 µM),relative viability (JZL-184 + AZD7762; first compound 1.265 µM),relative viability (JZL-184 + AZD7762; first compound 4 µM),relative viability (JZL-184 + Decitabine; first compound 0.04 µM),relative viability (JZL-184 + Decitabine; first compound 0.4 µM),relative viability (JZL-184 + Decitabine; first compound 1.265 µM),relative viability (JZL-184 + Decitabine; first compound 4 µM)
NCI-H1355,0.44,0.403,0.423,0.38,0.848,0.925,1.08,0.861,0.713,0.705,0.828,0.69,0.922,0.674,0.769,0.733,0.349,0.34,0.36,0.347
NCI-H1395,1.09,0.996,1.01,0.875,1.49,1.22,1.18,1.02,0.63,0.788,0.675,0.738,0.429,0.413,0.396,0.403,0.756,0.656,0.792,0.64
NCI-H1437,0.495,0.482,0.479,0.445,1.1,0.959,0.965,1.06,1.19,1.14,0.947,1.08,1.19,1.07,1.15,1.19,0.649,0.611,0.585,0.561
NCI-H1651,0.848,0.872,0.787,0.848,1.07,0.99,1.07,1.12,0.894,0.797,0.902,0.765,0.427,0.455,0.456,0.474,0.667,0.358,0.428,0.623
NCI-H1666,0.888,0.828,0.856,0.839,1.02,0.825,1.16,1.02,1.13,1.02,0.999,0.912,0.915,0.764,0.818,0.923,0.77,0.557,0.701,0.792
NCI-H1734,0.721,0.611,0.72,0.606,0.991,0.799,0.901,0.843,0.207,0.206,0.185,0.222,0.571,0.518,0.719,0.625,0.536,0.494,0.512,0.501
NCI-H1755,0.748,0.747,0.802,0.77,1.01,0.954,1.01,0.918,0.598,0.418,0.26,0.405,0.397,0.379,0.456,0.433,0.751,0.701,0.71,0.704
NCI-H1792,0.347,0.406,0.495,0.448,0.889,0.624,0.675,0.612,0.401,0.383,0.56,0.408,0.747,0.548,0.713,0.858,0.668,0.503,0.529,0.597
NCI-H1793,0.433,0.481,0.455,0.438,0.351,0.426,0.502,0.38,0.162,0.165,0.153,0.156,0.359,0.465,0.742,0.401,0.533,0.441,0.507,0.462
NCI-H1915,0.301,0.293,0.328,0.297,0.819,0.749,0.794,0.722,0.913,0.682,0.8,0.718,0.76,0.58,0.726,0.697,0.243,0.266,0.272,0.266
NCI-H1944,0.438,0.385,0.452,0.417,0.948,1.08,1.08,1.02,0.615,0.682,0.766,0.754,0.556,0.469,0.531,0.54,0.451,0.416,0.407,0.391
NCI-H1975,0.314,0.33,0.349,0.33,1.3,0.967,1.2,1.05,0.275,0.292,0.265,0.168,0.723,0.664,0.804,0.583,0.429,0.368,0.413,0.397
NCI-H1993,0.496,0.51,0.517,0.559,0.906,0.884,1.06,1.03,0.846,0.745,0.885,0.968,0.704,0.725,0.885,0.803,0.572,0.588,0.577,0.559
NCI-H2085,–,0.515,0.527,0.603,1.1,1.18,1.13,1.08,0.327,0.454,0.46,0.443,–,0.886,1.02,1.01,–,0.538,0.521,0.627
NCI-H2087,0.181,0.173,0.182,0.188,1,0.997,1.18,0.996,0.167,0.134,0.157,0.209,1.33,1.2,1.26,1.34,0.271,0.301,0.415,0.237
